Here are results for eight cell lines from the supplement of paper PMC10307832.

Assay in all cases: relative viability (nuclei count vs DMSO), 5 days (fraction); higher = more cells survive
Compound in test [1]: Cc1ccc(F)c(NC(=O)Nc2ccc(-c3cccc4[nH]nc(N)c34)cc2)c1 [Linifanib] + CS(=O)(=O)N1CCN(Cc2cc3nc(-c4cccc5[nH]ncc45)nc(N4CCOCC4)c3s2)CC1 [Pictilisib] (partner 1 µM)
In a few lines:
(§1)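 Five library-drug doses in √10 steps were combined with a fixed anchor-drug dose, or a single drug was given alone, by pin tool to lung cancer cell lines in 1536-well plates the day after seeding. Nuclei were stained and counted after 5 days. Relative viability is the nuclei count in treated wells over that in vehicle wells, taken as the median of duplicate plates.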

Compound in test [2]: Cc1ccc(F)c(NC(=O)Nc2ccc(-c3cccc4[nH]nc(N)c34)cc2)c1 [Linifanib] + Cc1cc(Nc2cc(N3CCN(C)CC3)nc(Sc3ccc(NC(=O)C4CC4)cc3)n2)n[nH]1 [Tozasertib] (partner 0.1 µM)
The gist of the method:
as §1

Compound in test [3]: Cc1ccc(F)c(NC(=O)Nc2ccc(-c3cccc4[nH]nc(N)c34)cc2)c1 [Linifanib] + NC(=O)Nc1cc(-c2cccc(F)c2)sc1C(=O)N[C@H]1CCCNC1 [AZD7762] (partner 0.2 µM)
The gist of the method:
as §1

Compound in test [4]: Cc1ccc(F)c(NC(=O)Nc2ccc(-c3cccc4[nH]nc(N)c34)cc2)c1 [Linifanib] + O=C(c1cc(Cc2n[nH]c(=O)c3ccccc23)ccc1F)N1CCN(C(=O)C2CC2)CC1 [Olaparib] (partner 8 µM)
In a few lines: as §1

Compound in test [5]: Cc1ccc(F)c(NC(=O)Nc2ccc(-c3cccc4[nH]nc(N)c34)cc2)c1 [Linifanib] + C[C@]1(O)C[C@@H](c2nc(-c3ccc4ccc(-c5ccccc5)nc4c3)c3c(N)nccn32)C1 [Linsitinib] (partner 1 µM)
The gist of the method:
as §1

Compound in test [6]: Cc1ccc(F)c(NC(=O)Nc2ccc(-c3cccc4[nH]nc(N)c34)cc2)c1 [Linifanib] + CS(=O)(=O)CCNCc1ccc(-c2ccc3ncnc(Nc4ccc(OCc5cccc(F)c5)c(Cl)c4)c3c2)o1 [Lapatinib] (partner 2 µM)
The gist of the method: as §1

On to NCI-H1915, for which the relative viability in test [1] (first compound 0.03162 µM) was 1.04; in test [1] (first compound 0.1 µM), 0.923; in test [1] (first compound 0.3162 µM), 0.892; in test [2] (first compound 0.03162 µM) it was 0.436; in test [2] (first compound 0.1 µM), 0.469; in test [2] (first compound 0.3162 µM), 0.399. Moreover, the relative viability in test [3] (first compound 0.03162 µM) turned out to be 0.743; in test [3] (first compound 0.1 µM), 0.701; in test [3] (first compound 0.3162 µM), 0.681; in test [4] (first compound 0.03162 µM) it was 0.264; in test [4] (first compound 0.1 µM), 0.26; in test [4] (first compound 0.3162 µM) it was 0.255. Also, the relative viability is 1.12 in test [5] (first compound 0.03162 µM); 1.09 in test [5] (first compound 0.1 µM); 1.08 in test [5] (first compound 0.3162 µM); 1.08 in test [6] (first compound 0.03162 µM); 0.925 in test [6] (first compound 0.1 µM); 0.89 in test [6] (first compound 0.3162 µM).

As to NCI-H3122, the relative viability in test [1] (first compound 0.03162 µM) worked out at 0.598; in test [1] (first compound 0.1 µM), 0.648; in test [1] (first compound 0.3162 µM), 0.577; in test [2] (first compound 0.03162 µM), 0.456; in test [2] (first compound 0.1 µM), 0.437; in test [2] (first compound 0.3162 µM) it was 0.371. Moreover, the relative viability is 1.01 in test [3] (first compound 0.03162 µM); 1.04 in test [3] (first compound 0.1 µM); 0.977 in test [3] (first compound 0.3162 µM); 0.641 in test [4] (first compound 0.03162 µM); 0.637 in test [4] (first compound 0.1 µM); 0.61 in test [4] (first compound 0.3162 µM). Besides, the relative viability in test [5] (first compound 0.03162 µM) was 0.997; in test [5] (first compound 0.1 µM), 0.986; in test [5] (first compound 0.3162 µM) it was 1.04; in test [6] (first compound 0.03162 µM), 1.11; in test [6] (first compound 0.1 µM), 1.11; in test [6] (first compound 0.3162 µM) it was 0.922.

As for NCI-H2087, the relative viability came out at 0.977 in test [1] (first compound 0.03162 µM); 0.989 in test [1] (first compound 0.1 µM); 0.825 in test [1] (first compound 0.3162 µM); 0.295 in test [2] (first compound 0.03162 µM); 0.254 in test [2] (first compound 0.1 µM); 0.267 in test [2] (first compound 0.3162 µM). The relative viability is 1.33 in test [3] (first compound 0.03162 µM); 1.45 in test [3] (first compound 0.1 µM); 1.32 in test [3] (first compound 0.3162 µM); 0.618 in test [4] (first compound 0.03162 µM); 0.764 in test [4] (first compound 0.1 µM); 0.598 in test [4] (first compound 0.3162 µM). The relative viability in test [5] (first compound 0.03162 µM) was determined as 1.14; in test [5] (first compound 0.1 µM), 1.02; in test [5] (first compound 0.3162 µM), 0.764; in test [6] (first compound 0.03162 µM) it was 1.15; in test [6] (first compound 0.1 µM), 1.2; in test [6] (first compound 0.3162 µM), 0.672.

As for NCI-H322M, the relative viability in test [1] (first compound 0.03162 µM) came to 0.513; in test [1] (first compound 0.1 µM), 0.491; in test [1] (first compound 0.3162 µM), 0.557; in test [2] (first compound 0.03162 µM), 0.5; in test [2] (first compound 0.1 µM), 0.515; in test [2] (first compound 0.3162 µM), 0.407. Besides, the relative viability is 0.594 in test [3] (first compound 0.03162 µM); 0.581 in test [3] (first compound 0.1 µM); 0.552 in test [3] (first compound 0.3162 µM); 0.832 in test [4] (first compound 0.03162 µM); 0.809 in test [4] (first compound 0.1 µM); 0.796 in test [4] (first compound 0.3162 µM). The relative viability in test [5] (first compound 0.03162 µM) stood at 1; in test [5] (first compound 0.1 µM), 0.865; in test [5] (first compound 0.3162 µM) it was 0.838; in test [6] (first compound 0.03162 µM), 0.582; in test [6] (first compound 0.1 µM), 0.539; in test [6] (first compound 0.3162 µM) it was 0.537.

Take EPLC-272H: the relative viability in test [1] (first compound 0.03162 µM) stood at 0.355; in test [1] (first compound 0.1 µM) it was 0.324; in test [1] (first compound 0.3162 µM) it was 0.28; in test [2] (first compound 0.03162 µM), 0.346; in test [2] (first compound 0.1 µM) it was 0.209; in test [2] (first compound 0.3162 µM), 0.181. Moreover, the relative viability amounted to 0.226 in test [3] (first compound 0.03162 µM); 0.448 in test [3] (first compound 0.1 µM); 0.205 in test [3] (first compound 0.3162 µM); 0.728 in test [4] (first compound 0.03162 µM); 1.05 in test [4] (first compound 0.1 µM); 0.722 in test [4] (first compound 0.3162 µM). Moreover, the relative viability in test [5] (first compound 0.03162 µM) was found to be 1.04; in test [5] (first compound 0.1 µM), 1.2; in test [5] (first compound 0.3162 µM) it was 1.15; in test [6] (first compound 0.03162 µM) it was 0.956; in test [6] (first compound 0.1 µM), 0.913; in test [6] (first compound 0.3162 µM), 0.814.

For HARA, the relative viability in test [1] (first compound 0.03162 µM) came out at 0.337; in test [1] (first compound 0.1 µM), 0.52; in test [1] (first compound 0.3162 µM), 0.3; in test [2] (first compound 0.03162 µM), 0.094; in test [2] (first compound 0.1 µM), 0.117; in test [2] (first compound 0.3162 µM), 0.0893. Besides, the relative viability in test [3] (first compound 0.03162 µM) amounted to 0.402; in test [3] (first compound 0.1 µM) it was 0.445; in test [3] (first compound 0.3162 µM), 0.387; in test [4] (first compound 0.03162 µM) it was 0.855; in test [4] (first compound 0.1 µM), 0.837; in test [4] (first compound 0.3162 µM) it was 0.745. In addition, the relative viability in test [5] (first compound 0.03162 µM) was found to be 0.991; in test [5] (first compound 0.1 µM) it was 0.931; in test [5] (first compound 0.3162 µM), 0.939; in test [6] (first compound 0.03162 µM) it was 0.815; in test [6] (first compound 0.1 µM), 0.905; in test [6] (first compound 0.3162 µM) it was 0.73.

Take EMC-BAC-2: the relative viability in test [1] (first compound 0.03162 µM) came to 0.555; in test [1] (first compound 0.1 µM), 0.59; in test [1] (first compound 0.3162 µM), 0.523; in test [2] (first compound 0.03162 µM), 0.296; in test [2] (first compound 0.1 µM), 0.266; in test [2] (first compound 0.3162 µM), 0.302. In addition, the relative viability in test [3] (first compound 0.03162 µM) is 1.18; in test [3] (first compound 0.1 µM), 1.21; in test [3] (first compound 0.3162 µM), 1.09; in test [4] (first compound 0.03162 µM) it was 0.508; in test [4] (first compound 0.1 µM), 0.498; in test [4] (first compound 0.3162 µM), 0.487. Further, the relative viability was found to be 0.818 in test [5] (first compound 0.03162 µM); 0.877 in test [5] (first compound 0.1 µM); 0.762 in test [5] (first compound 0.3162 µM); 0.901 in test [6] (first compound 0.03162 µM); 0.992 in test [6] (first compound 0.1 µM); 0.844 in test [6] (first compound 0.3162 µM).

With LCLC-97TM1, the relative viability in test [1] (first compound 0.03162 µM) is 0.208; in test [1] (first compound 0.1 µM) it was 0.196; in test [1] (first compound 0.3162 µM), 0.169; in test [2] (first compound 0.03162 µM), 0.205; in test [2] (first compound 0.1 µM) it was 0.231; in test [2] (first compound 0.3162 µM) it was 0.189. Further, the relative viability turned out to be 0.262 in test [3] (first compound 0.03162 µM); 0.229 in test [3] (first compound 0.1 µM); 0.29 in test [3] (first compound 0.3162 µM); 0.453 in test [4] (first compound 0.03162 µM); 0.402 in test [4] (first compound 0.1 µM); 0.502 in test [4] (first compound 0.3162 µM). Also, the relative viability came to 0.17 in test [5] (first compound 0.03162 µM); 0.214 in test [5] (first compound 0.1 µM); 0.171 in test [5] (first compound 0.3162 µM); 1.51 in test [6] (first compound 0.03162 µM); 0.984 in test [6] (first compound 0.1 µM); 0.858 in test [6] (first compound 0.3162 µM).
